US10285982B2, “3-(1H-pyrrolo[2,3-B]pyridin-2-yl)-1H-pyrazolo[3,4-C]pyridines and therapeutic uses thereof” (Samumed, LLC, priority 2015, dated 2019)
Blank lines part the entries; values can stand above or below the compound they belong to.

Key:
[1] = system: primary human mesenchymal stem cells (hMSCs); assay: Chondrogenesis induction in hMSCs (nodule count); assay type: cell-based; conditions: 144 h, hMSC chondrogenesis, 6 days; for EC50: concentration required to induce 50% of TGF-β3 level, read-out: Conc. (nM) of 50% TGF-β3 activity; for Emax: relative to TGF-β3 (10 ng/mL) positive control, read-out: Max. Activity as % TGF-β3 activity
Experimental: Representative compounds were screened using primary human mesenchymal stem cells (hMSCs) to determine their ability to induce chondrogenesis (process by which cartilage is developed).
Primary human mesenchymal stem cells (hMSCs) were purchased from Lonza (Walkersville, Md.) and expanded in Mesenchymal Stem Cell Growth Media (Lonza). Cells between passage 3 and 6 were used for the experiments.
Each compound was dissolved in DMSO as a 10 mM stock and used to prepare compound source plates. Serial dilution (1:3, 6-point dose-response curves from 2700 nM to 10 nM) and compound transfer was performed using the ECHO 550 (Labcyte, Sunnyvale, Calif.) into 96-well clear bottom assay plates (Greiner Bio-One) with appropriate DMSO backfill for a final DMSO concentration of 0.03%. hMSCs were plated at 20,000 cells/well in 250 μL/well Incomplete Chondrogenic Induction Medium (Lonza; DMEM, dexamethasone, ascorbate, insulin-transferrin-selenium [ITS supplement], gentamycin-amphotericin [GA-1000], sodium pyruvate, proline and L-glutamine). TGF-β3 (10 ng/mL) was used as a positive control for differentiation while negative control wells were treated with 75 nL DMSO for normalization and calculating EC50 values. Cells were incubated at 37° C. and 5% CO2 for 6 days. To image chondrogenic nodules, the cells were fixed using 4% formaldehyde (Electron Microscopy Sciences), and stained with 2 μg/mL Rhodamine B (Sigma-Aldrich) and 20 μM Nile Red (Sigma-Aldrich) [Johnson K., et. al, A Stem Cell-Based Approach to Cartilage Repair, Science, (2012), 336(6082), 717-721]. The nodules imaged (4 images per well at 4× magnification) by excitation at 531 nm and emission at 625 nm and quantified using the CellInsight CX5 (Thermo Scientific). Number of nodules in each well was normalized to the average of 3 DMSO treated wells on the same plate using Excel (Microsoft Inc.). The normalized averages (fold change over DMSO) of 3 replicate wells for each compound concentration were calculated. Due to solubility limitations of some of the compounds, curve fitting was incomplete leading to inaccurate EC50 determinations.
Using TGF-β3 as a positive control, the concentration of representative compounds required to induce 50% levels of chondrogenesis is reported. In addition, the maximum activity of each compound and the respective dose that each compound reached maximum chondrogenesis activity is reported.

[2] = system: primary human fibroblasts derived from IPF patients (LL29 cells) treated with TGF-β1; assay: Inhibition of fibrotic process, αSMA staining in TGF-β1 treated LL29 fibroblasts; assay type: cell-based; conditions: Fibroblast; for EC50: 96 h, % αSMA positive LL29 cells, TGF-β1 20 ng/mL, 4 days; for inhibition at 10 µM: given where EC50 >10 μM, αSMA, LL29 cells, TGF-β1, read-out: percent inhibition at 10 μM
How it was run: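 Potency reflects suppression of TGF-β1-driven αSMA expression in IPF patient fibroblasts over 4 days. Values are EC50s from normalized αSMA-positive cell counts, with % inhibition at 10 μM when EC50 exceeded 10 μM.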

Compound: CC(C)(C)C(=O)Nc1cncc(-c2cc3c(-c4cc5c(-c6cccc(F)c6)ccnc5[nH]4)n[nH]c3cn2)c1 [Compound 8, N-(5-(3-(4-(3-Fluorophenyl)-1H-pyrrolo[2,3-b]pyridin-2-yl)-1H-pyrazolo [3,4-c]pyridin-5-yl)pyridin-3-yl)pivalamide]
EC50 [1]: 10 nM | Emax [1]: 114% | EC50 [2]: 0.033 µM

EC50 [1]: 100 nM
Compound: Fc1cccc(-c2ccnc3[nH]c(-c4n[nH]c5cnc(-c6cncc(CN7CCCC7)c6)cc45)cc23)c1 [Compound 14, 3-(4-(3-Fluorophenyl)-1H-pyrrolo[2,3-b]pyridin-2-yl)-5-(5-(pyrrolidin-1-ylmethyl)pyridin-3-yl)-1H-pyrazolo[3,4-c]pyridine]
Emax [1]: 68% | EC50 [2]: 3.53 µM

Compound: O=C(Nc1cncc(-c2cc3c(-c4cc5c(-c6cccc(F)c6)ccnc5[nH]4)n[nH]c3cn2)c1)C1CC1 [Compound 20, N-(5-(3-(4-(3-Fluorophenyl)-1H-pyrrolo[2,3-b]pyridin-2-yl)-1H-pyrazolo [3,4-c]pyridin-5-yl)pyridin-3-yl)cyclopropanecarboxamide]
Emax [1]: 22% | EC50 [2]: 0.019 µM

Compound: Fc1cccc(-c2ccnc3[nH]c(-c4n[nH]c5cnc(-c6cncnc6)cc45)cc23)c1 [Compound 27, 3-(4-(3-Fluorophenyl)-1H-pyrrolo[2,3-b]pyridin-2-yl)-5-(pyrimidin-5-yl)-1H-pyrazolo[3,4-c]pyridine]
Emax [1]: 41% | EC50 [2]: 2.82 µM

Compound: Nc1cncc(-c2cc3c(-c4cc5c(-c6ccccc6F)ccnc5[nH]4)n[nH]c3cn2)c1 [Compound 59, 5-(3-(4-(2-Fluorophenyl)-1H-pyrrolo[2,3-b]pyridin-2-yl)-1H-pyrazolo[3,4-c]pyridin-5-yl)pyridin-3-amine]
Emax [1]: 32% | EC50 [2]: 0.386 µM

EC50 [1]: 30 nM
Compound: CCNCc1cncc(-c2cc3c(-c4cc5c(-c6ccccc6F)ccnc5[nH]4)n[nH]c3cn2)c1 [Compound 62, N-((5-(3-(4-(2-Fluorophenyl)-1H-pyrrolo[2,3-b]pyridin-2-yl)-1H-pyrazolo [3,4-c]pyridin-5-yl)pyridin-3-yl)methyl)ethanamine]
Emax [1]: 270% | EC50 [2]: > 10 µM | inhibition at 10 µM [2]: 64.9%

Compound: CCNCc1cncc(-c2cc3c(-c4cc5c(-c6cccnc6)ccnc5[nH]4)n[nH]c3cn2)c1 [Compound 90, N-((5-(3-(4-(Pyridin-3-yl)-1H-pyrrolo[2,3-b]pyridin-2-yl)-1H-pyrazolo[3,4-c]pyridin-5-yl)pyridin-3-yl)methyl)ethanamine]
Emax [1]: 49% | EC50 [2]: 1.63 µM

EC50 [1]: 10 nM
Compound: O=C(Nc1cncc(-c2cc3c(-c4cc5c(-c6cccnc6)ccnc5[nH]4)n[nH]c3cn2)c1)c1ccccc1 [Compound 95, N-(5-(3-(4-(Pyridin-3-yl)-1H-pyrrolo[2,3-b]pyridin-2-yl)-1H-pyrazolo[3,4-c]pyridin-5-yl)pyridin-3-yl)benzamide]
Emax [1]: 64% | EC50 [2]: > 10 µM | inhibition at 10 µM [2]: 0.8%

EC50 [1]: 10 nM
Compound: CC(C)Nc1cncc(-c2cc3c(-c4cc5c(-c6cccnc6)ccnc5[nH]4)n[nH]c3cn2)c1 [Compound 96, N-Isopropyl-5-(3-(4-(pyridin-3-yl)-1H-pyrrolo[2,3-b]pyridin-2-yl)-1H-pyrazolo[3,4-c]pyridin-5-yl)pyridin-3-amine]
Emax [1]: 77% | EC50 [2]: > 10 µM | inhibition at 10 µM [2]: 0%

Compound: c1cncc(-c2ccnc3[nH]c(-c4n[nH]c5cnc(-c6cncc(CN7CCCC7)c6)cc45)cc23)c1 [Compound 98, 3-(4-(Pyridin-3-yl)-1H-pyrrolo[2,3-b]pyridin-2-yl)-5-(5-(pyrrolidin-1-ylmethyl)pyridin-3-yl)-1H-pyrazolo[3,4-c]pyridine]
Emax [1]: 17% | EC50 [2]: 8.15 µM

EC50 [1]: 10 nM
Compound: CCCCC(=O)Nc1cncc(-c2cc3c(-c4cc5c(-c6cccnc6)ccnc5[nH]4)n[nH]c3cn2)c1 [Compound 103, N-(5-(3-(4-(Pyridin-3-yl)-1H-pyrrolo[2,3-b]pyridin-2-yl)-1H-pyrazolo[3,4-c]pyridin-5-yl)pyridin-3-yl)pentanamide]
Emax [1]: 53% | EC50 [2]: > 10 µM | inhibition at 10 µM [2]: 4.8%

Compound: c1cncc(-c2ccnc3[nH]c(-c4n[nH]c5cnc(-c6cncnc6)cc45)cc23)c1 [Compound 111, 3-(4-(Pyridin-3-yl)-1H-pyrrolo[2,3-b]pyridin-2-yl)-5-(pyrimidin-5-yl)-1H-pyrazolo[3,4-c]pyridine]
Emax [1]: 50% | EC50 [2]: > 10 µM | inhibition at 10 µM [2]: 1.4%

Compound: CN(C)Cc1cncc(-c2cc3c(-c4cc5c(-c6ccncc6)ccnc5[nH]4)n[nH]c3cn2)c1 [Compound 125, N,N-Dimethyl-1-(5-(3-(4-(pyridin-4-yl)-1H-pyrrolo[2,3-b]pyridin-2-yl)-1H-pyrazolo[3,4-c]pyridin-5-yl)pyridin-3-yl)methanamine]
Emax [1]: 33% | EC50 [2]: 5.01 µM

Compound: CN1CCN(c2ccnc3[nH]c(-c4n[nH]c5cnc(-c6cncc(N(C)C)c6)cc45)cc23)CC1 [Compound 231, N,N-Dimethyl-5-(3-(4-(4-methylpiperazin-1-yl)-1H-pyrrolo[2,3-b]pyridin-2-yl)-1H-pyrazolo[3,4-c]pyridin-5-yl)pyridin-3-amine]
Emax [1]: 14% | EC50 [2]: > 10 µM | inhibition at 10 µM [2]: 41.8%

EC50 [1]: 300 nM
Compound: CN1CCN(c2ccnc3[nH]c(-c4n[nH]c5cnc(-c6cncc(CNCC7CCCC7)c6)cc45)cc23)CC1 [Compound 249, 1-Cyclopentyl-N-((5-(3-(4-(4-methylpiperazin-1-yl)-1H-pyrrolo[2,3-b]pyridin-2-yl)-1H-pyrazolo[3,4-c]pyridin-5-yl)pyridin-3-yl)methyl)methanamine]
Emax [1]: 150% | EC50 [2]: 6.92 µM

Compound: CC(C)CC(=O)Nc1cncc(-c2cc3c(-c4cc5cccnc5[nH]4)n[nH]c3cn2)c1 [Compound 254, N-(5-(3-(1H-Pyrrolo[2,3-b]pyridin-2-yl)-1H-pyrazolo[3,4-c]pyridin-5-yl)pyridin-3-yl)-3-methylbutanamide]
Emax [1]: 40% | EC50 [2]: 9.98 µM

Compound: Fc1cccc(-c2ccnc3[nH]c(-c4n[nH]c5cnc(-c6cncc(OCc7ccccc7)c6)cc45)cc23)c1 [Compound 518, 5-(5-(Benzyloxy)pyridin-3-yl)-3-(4-(3-fluorophenyl)-1H-pyrrolo[2,3-b]pyridin-2-yl)-1H-pyrazolo[3,4-c]pyridine]
EC50 [2]: > 10 µM | inhibition at 10 µM [2]: 27.5%

Compound: Oc1cncc(-c2cc3c(-c4cc5c(-c6ccc(F)cc6)ccnc5[nH]4)n[nH]c3cn2)c1 [Compound 533, 5-(3-(4-(4-Fluorophenyl)-1H-pyrrolo[2,3-b]pyridin-2-yl)-1H-pyrazolo[3,4-c]pyridin-5-yl)pyridin-3-ol]
EC50 [2]: 3.54 µM

Compound: CN(C)CCOc1cncc(-c2cc3c(-c4cc5c(-c6cccnc6)ccnc5[nH]4)n[nH]c3cn2)c1 [Compound 563, N,N-Dimethyl-2-((5-(3-(4-(pyridin-3-yl)-1H-pyrrolo[2,3-b]pyridin-2-yl)-1H-pyrazolo[3,4-c]pyridin-5-yl)pyridin-3-yl)oxy)ethan-1-amine]
EC50 [2]: 1.11 µM

Compound: c1cc(N2CCCCC2)c2cc(-c3n[nH]c4cnc(C5CCNCC5)cc34)[nH]c2n1 [Compound 601, 3-(4-(Piperidin-1-yl)-1H-pyrrolo[2,3-b]pyridin-2-yl)-5-(piperidin-4-yl)-1H-pyrazolo[3,4-c]pyridine]
EC50 [2]: > 10 µM | inhibition at 10 µM [2]: 13%

Compound: Cn1cc(-c2cc3c(-c4cc5cccnc5[nH]4)n[nH]c3cn2)cn1 [Compound 652, 5-(1-Methyl-1H-pyrazol-4-yl)-3-(1H-pyrrolo[2,3-b]pyridin-2-yl)-1H-pyrazolo[3,4-c]pyridine]
EC50 [2]: 0.473 µM

Compound: c1csc(-c2ccnc3[nH]c(-c4n[nH]c5cnc(-c6cncc(OC7CCCCC7)c6)cc45)cc23)c1 [Compound 703, 5-(5-(Cyclohexyloxy)pyridin-3-yl)-3-(4-(thiophen-2-yl)-1H-pyrrolo[2,3-b]pyridin-2-yl)-1H-pyrazolo[3,4-c]pyridine]
EC50 [2]: 1.73 µM
